# From US9382213B2, “Heterocyclic and cyclic analogs of propargyl-linked inhibitors of dihydrofolate reductase” (PROMILIAD BIOPHARMA INC., priority 2014, dated 2016)
# Where two headings read alike, the source gives them in different places.
# How the values were obtained:
# [1] = molecular target: T1, CaDHFR (Candida albicans, UniProt P22906); assay: DHFR enzyme inhibition (NADPH consumption at 340 nm), C. albicans DHFR; type: biochemical
# T1 construct: made in house
# T1 sequence (P22906 1-192): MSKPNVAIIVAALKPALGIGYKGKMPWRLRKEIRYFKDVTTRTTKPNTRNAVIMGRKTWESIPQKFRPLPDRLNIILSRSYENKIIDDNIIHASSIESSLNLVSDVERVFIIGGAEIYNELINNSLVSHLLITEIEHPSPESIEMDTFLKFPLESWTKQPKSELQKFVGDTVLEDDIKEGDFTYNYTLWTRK
# Method: (§1) Med. Chem., 17:4866-4872 (2009)). Crystallization of the protein with ligand also followed previously described procedures (Paulsen et al 2011). Data were collected at Brookhaven National Laboratory, beamline X4A (CaDHFR) or X4C (CgDHFR). Molecular replacement was used to determine all three structures. Initial phase information was obtained using Phaser; electron density and model building used Coot. Refinement was carried out with Refmac 5 as part of the CCP4 package. Procheck was used to assess model quality.
# (§2) Enzyme inhibition was determined by monitoring the consumption of NADPH at 340 nm for one minute. Reactions were performed with 20 mM TES pH 7.0, 50 mM KCl, 10 mM 2-mercaptoethanol, 0.5 mM EDTA and 1 mg/mL bovine serum albumin. Saturating concentrations of cofactor (100 μM NADPH) and substrate (100 μM dihydrofolate) were used with a limiting concentration of enzyme. All assays were conducted in triplicate at 25° C.
# [2] = molecular target: T2, hDHFR (Homo sapiens, UniProt P00374); assay: DHFR enzyme inhibition (NADPH consumption at 340 nm), human DHFR; type: biochemical
# T2 sequence (P00374 1-187): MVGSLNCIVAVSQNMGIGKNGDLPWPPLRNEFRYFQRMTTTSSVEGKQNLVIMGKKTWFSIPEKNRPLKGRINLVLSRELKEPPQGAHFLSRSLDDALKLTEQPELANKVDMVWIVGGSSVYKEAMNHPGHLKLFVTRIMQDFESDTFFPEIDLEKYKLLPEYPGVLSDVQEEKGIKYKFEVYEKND
# Method: as §2
# [3] = test system: Human MCF-10; assay: Mammalian cell cytotoxicity; type: cell-based
# [4] = molecular target: T3, CgDHFR (Candida glabrata, UniProt Q6FPH0); assay: DHFR enzyme inhibition (NADPH consumption at 340 nm), C. glabrata DHFR; type: biochemical; conditions: 100 μM NADPH, 100 μM dihydrofolate, pH 7.0, 25° C., triplicate
# T3 construct: made in house
# T3 sequence (Q6FPH0 entry or part of it): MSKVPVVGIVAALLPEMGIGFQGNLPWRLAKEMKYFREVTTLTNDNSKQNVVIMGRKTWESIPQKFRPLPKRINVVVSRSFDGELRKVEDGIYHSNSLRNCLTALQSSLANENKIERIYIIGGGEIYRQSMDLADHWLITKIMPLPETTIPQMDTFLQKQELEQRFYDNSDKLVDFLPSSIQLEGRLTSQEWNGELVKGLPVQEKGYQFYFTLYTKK
# Method: as §1, §2
# [5] = test system: C. glabrata (strain NCCLS84); assay: Antifungal activity (MIC), XTT cell viability; type: cell-based, Candida glabrata; conditions: strain NCCLS84, GSB media
# Method: (§3) Stock cultures of C. albicans (strain SC5314) or C. glabrata (strain NCCLS84), thawed from storage in 50% glycerol at −80° C., were streaked on YM agar plates and grown at 37° C. for 48 hours. Isolated colonies from the plate were suspended in 100 mL of glucose-salt-biotin (GSB) media containing ammonia chloride (2 g), potassium phosphate (0.35 g), magnesium sulfate (0.24 g), sodium citrate (0.3 g), piperazine-N,N′-bis[2-ethanesulfonic acid] (3.4 g), biotin (40 mg) and glucose (20 g) in 1 L of water at a final pH of 7.1. […] An aliquot was removed from the shake flask culture, diluted to between 1×10^5 and 1×10^6 cells/mL in GSB media, and added to 96 well test plates (100 μL per well) containing test compounds dispensed in DMSO (1 μL). Amphotericin B and itraconazole were used as controls. C. albicans cell viability was determined by the addition of Alamar Blue (10 μL) to each well after a 24 hour incubation period. […] The XTT Cell Proliferation kit (ATCC) was used as an alternative. Tetrazolium dye, XTT, along with an electron activating reagent (50 μL) was added to 96 well plates and incubated for 24 hours at 37° C. Cell viability is indicated by a color change from a dark orange to a bright orange color that can be detected at […].
# [6] = test system: C. albicans (strain SC5314); assay: Antifungal activity (MIC), Alamar Blue cell viability; type: cell-based, Candida albicans; conditions: strain SC5314, GSB media, Alamar Blue after 24 hour incubation; for MIC: Candida albicans, SC5314, 24 h
# Method: as §3
# [7] = Kinetic solubility; type: physicochemical; conditions: water, 0.2% DMSO, room temperature 30 min, HPLC
# Method: Compounds were initially dissolved as […] dimethyl sulfoxide (DMSO) solutions and diluted in filtered water in the presence or absence of 200 μg/ml methylcellulose (METHOCEL A4M; Dow Corning, Midland, Mich.). Final concentration of DMSO of all samples is 0.2%. All samples were incubated at room temperature for 30 min and centrifuged for 10 min at 15,000 rpm. Supernatant of the samples were analyzed by reversed phase HPLC. The mobile phase consisted of 50% acetonitrile (ACN) and 50% potassium phosphate buffer (50 mM, pH 7.0), using an isocratic flow rate of 1.5 ml/min. Solubility was determined as the maximal concentration for which absorption is linearly related to the log of the concentration.
# [8] = 100 μM NADPH, 100 μM dihydrofolate, pH 7.0, 25° C., triplicate
# [9] = MCF10, Human MCF-10 cells, read-out: IC50 Human MCF-10
SMILES,"IC50 [1, 8] [nM]","IC50 [2, 8] [nM]","IC50 ([3]; Homo sapiens, MCF10, read-out: IC50 Human MCF-10) [µM]",melting point [°C],"IC50 [3, 9] [µM]",IC50 ([1]; pH 7) [nM],IC50 ([2]; pH 7) [nM],IC50 [4] [nM],MIC C. glabrata [5] [µg/mL],MIC [6] [µg/mL],MIC C. albicans [6] [µg/mL],solubility [7] [µg/mL],MIC ([5]; Nakaseomyces glabratus) [µg/mL]
"CCc1nc(N)nc(N)c1C#CC(C)c1ccc(-c2ccc(O)cc2)cc1OC (centres unmarked) [Compound 30, 4′-[3-(2,4-Diamino-6-ethyl-pyrimidin-5-yl)-1-methyl-prop-2-ynyl]-3′-methoxy-biphenyl-4-ol]",39,136,148,188.1 to 189.3,–,–,–,–,–,–,–,–,–
"CCc1nc(N)nc(N)c1C#CC(C)c1ccc(-c2ccc(C#N)cc2)cc1OC (centres unmarked) [Compound 32, 4′-[3-(2,4-Diamino-6-ethyl-pyrimidin-5-yl)-1-methyl-prop-2-ynyl]-3′-methoxy-biphenyl-4-carbonitrile]",50,477,–,130.9 to 133.1,50,–,–,–,–,–,–,–,–
"CCc1nc(N)nc(N)c1C#CC(C)c1ccc(-c2ccc(OC(N)=O)cc2)cc1OC (centres unmarked) [Compound 33, Carbamic acid 4′-[3-(2,4-diamino-6-ethyl-pyrimidin-5-yl)-1-methyl-prop-2-ynyl]-3′-methoxy-biphenyl-4-yl ester]",18,170,–,–,–,–,–,–,–,–,–,–,–
"CCc1nc(N)nc(N)c1C#CC(C)c1ccc(-c2ccc(C(=O)OC)cc2)cc1OC (centres unmarked) [Compound 34, 4′-[3-(2,4-Diamino-6-ethyl-pyrimidin-5-yl)-1-methyl-prop-2-ynyl]-3′-methoxy-biphenyl-4-carboxylic acid methyl ester]",46,49,–,168.2 to 170.8,96,–,–,–,–,–,–,–,–
"CCc1nc(N)nc(N)c1C#CC(C)c1ccc(-c2ccc(N(C)C)cc2)cc1OC (centres unmarked) [Compound 35, 5-[3-(4′-Dimethylamino-3-methoxy-biphenyl-4-yl)-but-1-ynyl]-6-ethyl-pyrimidine-2,4-diamine]",–,–,–,135.2 to 136.1,–,64,147,–,–,–,–,–,–
"CCc1nc(N)nc(N)c1C#CC(C)c1ccc(-c2ccccc2)nc1 (centres unmarked) [Compound 46, 6-Ethyl-5-[3-(6-phenyl-pyridin-3-yl)-but-1-ynyl]-pyrimidine-2,4-diamine]",–,688,–,–,–,–,–,23,0.78,0.2 to 0.78,0.39,20,–
"CCc1nc(N)nc(N)c1C#CC(C)c1ccc(-c2ccc(C)cc2)nc1 (centres unmarked) [Compound 47, 6-Ethyl-5-[3-(6-p-tolyl-pyridin-3-yl)-but-1-ynyl]-pyrimidine-2,4-diamine]",–,625,–,144 to 146.1,–,49,–,27,0.2,0.2 to 0.78,0.39,15,0.2 to 0.78
"CCc1nc(N)nc(N)c1C#CC(C)c1cnc(-c2ccccc2)nc1 (centres unmarked) [Compound 48, 6-Ethyl-5-[3-(2-phenyl-pyrimidin-5-yl)-but-1-ynyl]-pyrimidine-2,4-diamine]",37,180,–,161.3 to 162.8,216,–,–,22,0.78,0.2 to 0.78,0.19,60,–
